Like-named read-outs stand apart in the source and are kept apart here.
Experiments:
HepG2 = assay: Modified MTT cytotoxicity assay, HepG2; assay type: cell-based, Human; conditions: for IC50: MTT, 24 h incubation, three replicates, read-out: Cytotoxicity IC50 HepG2; for SI (selectivity index) HepG2: quotient of IC50 for normal (LO2) and malignant (HepG2) cells
Experimental: (§1) The HepG2, SMMC-7721, and LO2 cell lines were maintained at 37 °C, 5% humidified CO2, and 95% atmosphere. Dulbecco's Modified Eagle (DMEM) medium containing 10% foetal bovine serum (FBS) was used for culturing the HepG2 cell line; meanwhile, Roswell Park Memorial Institute (RPMI) 1640 medium containing 10% FBS was used for culturing other cell lines (SMMC-7721, LO2). The HepG2, SMMC-7721 and LO2 cells were seeded in a 96-well plate in 200 μL of medium per well at a density of approximately 8 × 10^3 cells/well and cultured for 24 h, followed by incubation in an incubator of indicated compounds with successive concentrations (10, 5, 2.5, 1.25, 0.625, 0.3125 μg/mL) for 24 h. In the control group, cells were only cultured with culture media. After the media were removed, 20 μL of MTT (5 mg/mL) was added, then cells were incubated for 4 h at 37 °C. […] GraphPad Prism 5 software was used to calculate their IC50 values. Every IC50 value was the average of three replicates. Doxorubicin (DOX) and curcumin were used as positive controls.

SMMC-7721 = assay: Modified MTT cytotoxicity assay, SMMC-7721; assay type: cell-based, Human; conditions: for IC50: MTT, 24 h incubation, three replicates; for SI (selectivity index) SMMC-7721: quotient of IC50 for normal (LO2) and malignant (SMMC-7721) cells
Experimental: as §1

[1] = Modified MTT cytotoxicity assay, normal heptical cell line LO2; assay type: cell-based, human; conditions: human, LO2 cells (normal hepatic cell line), 24 h incubation
Experimental: as §1

RAW264.7 cell = assay: MTT toxicity pre-experiment on RAW264.7 macrophagocyte; assay type: cell-based, mouse; conditions: for viability at 5 µM: Mus musculus, RAW264.7, BAPs 5 μM, read-out: Survival rate RAW264.7 cell
Experimental: Lipopolysaccharide (LPS) is a key constituent of Gram-negative bacterial endotoxin, which is used to induce an inflammatory response in corresponding inflammatory cells. TNF-α and IL-6 are two kinds of representative pro-inflammatory factors, which produced by LPS-stimulated RAW264.7 macrophage. In our pre-experiments, the toxicity against RAW264.7 macrophagocyte for all title compounds was tested by the MTT assay, and the results were listed in Table 2. The survival rates were above 80% for all BAPs (4-30) at the concentration of 5.0 μM.

TNF-α = assay: ELISA of TNF-α release in LPS-stimulated RAW264.7 cells; assay type: cell-based, mouse; conditions: RAW264.7, ELISA; for inhibition at 5 µM: Mus musculus, RAW264.7, BAPs (5 μM) + LPS (1 μg/mL), read-out: Inhibition rate TNF-α
Experimental: (§2) We tested by inhibiting the secretion of TNF-α and IL-6 to better evaluated the anti-inflammatory effects of BAPs. […] Under the stimulation of LPS (1.0 μg/mL) with RAW264.7 cells, the release of TNF-α and IL-6 was detected. Besides, after treated with BAPs (5.0 μM) and LPS (1.0 μg/mL), the release of TNF-α and IL-6 was measured with an ELISA kit (eBioScience, San Diego, California), respectively. In general terms, pyrrolidine dithiocarbamate (PDTC, 30 μM) or BAP (5.0 μM) was used to pretreat cells for 2 h, respectively. Then, LPS (1.0 μg/mL) was added and cells were incubated for another 22 h. Finally, the culture media were centrifuged at 1000 rpm for 10 min, and the expression levels of TNF-α and IL-6 were determined by ELISA.

IL-6 = assay: ELISA of IL-6 release in LPS-stimulated RAW264.7 cells; assay type: cell-based, mouse; conditions: RAW264.7, ELISA; for inhibition at 5 µM: Mus musculus, RAW264.7, BAPs (5 μM) + LPS (1 μg/mL), read-out: Inhibition rate IL-6
Experimental: as §2

A549 = assay: Modified MTT cytotoxicity assay, A549; conditions: for SI (selectivity index) A549: quotient of IC50 for normal (HHL-5) and malignant (A549) cells
Experimental: (§3) To further verify the anti-tumour activity, one human non-small cell lung cancer cell line (A549), one human ovarian cancer cell line (A2780), and one human normal heptical cell line (HHL-5) were screened by BAPs (4–30) using a modified MTT assay (Supporting Information). DOX and curcumin were selected as positive controls.
(§4) The optical density (OD) value of each well was measured on a
(§5) multi-well plate reader (TECAN, Mӓnnedorf, Switzerland ) at 570 nm.
(§6) Every IC 50 value was the average of three replicates.
(§7) Doxorubicin (DOX) and Curcumin were used as positive controls.

A2780 = assay: Modified MTT cytotoxicity assay, A2780; conditions: for SI (selectivity index) A2780: quotient of IC50 for normal (HHL-5) and malignant (A2780) cells
Experimental: as §3, §4, §5, §6, §7

[2] = Modified MTT cytotoxicity assay, normal heptical cell line HHL-5; conditions: human, HHL-5 cells (normal hepatic cell line)
Experimental: as §3, §4, §5, §6, §7

LO2 = assay: Modified MTT cytotoxicity assay, normal heptical cell line LO2; assay type: cell-based, human; conditions: 24 h incubation
Experimental: as §1

[3] = Homo sapiens, A549, read-out: Cytotoxicity IC50 A549, MTT, non-small cell lung cancer cell line
[4] = Homo sapiens, A2780, read-out: Cytotoxicity IC50 A2780, MTT, ovarian cancer cell line

| Compound | IC50 (HepG2; Homo sapiens, HepG2, 24 h) | IC50 (SMMC-7721; Homo sapiens, SMMC-7721, 24 h) | IC50 at 24 h [1] | viability at 5 µM (RAW264.7 cell) | inhibition at 5 µM (TNF-α) | inhibition at 5 µM (IL-6) | IC50 (A549; [3]) | IC50 (A2780; [4]) | IC50 [2] | SI (selectivity index) HepG2 (HepG2) | SI (selectivity index) SMMC-7721 (SMMC-7721) | SI (selectivity index) A549 (A549) | SI (selectivity index) A2780 (A2780) | also measured |
| --- | --- | --- | --- | --- | --- | --- | --- | --- | --- | --- | --- | --- | --- | --- |
| Cc1ccc(S(=O)(=O)N2C/C(=C\c3cccc(C(F)(F)F)c3)C(=O)/C(=C/c3cccc(C(F)(F)F)c3)C2)cc1 [BAP 14] | 11.1 ± 0.2 µM | 5.6 ± 0.1 µM | 15.9 ± 0.1 µM | 89.2 ± 1.8% | 60.2 ± 1.2% | 66.3 ± 2% | 0.23 ± 0.04 µM | 0.14 ± 0.03 µM | 9.4 ± 0.2 µM |  |  |  |  |  |
| O=C1/C(=C/c2ccc(C(F)(F)F)cc2)CN(S(=O)(=O)c2ccc(Br)cc2)C/C1=C\c1ccc(C(F)(F)F)cc1 [BAP 28] | 1.7 ± 0.2 µM | 1.9 ± 0.2 µM | 14.2 ± 0.3 µM | 84 ± 3.6% | > 70% | > 70% | 0.2 ± 0.02 µM | 0.18 ± 0.04 µM | 20.7 ± 0.5 µM | 8.4 | 7.5 | 103.5 | 115.0 |  |
| N#Cc1ccc(S(=O)(=O)N2C/C(=C\c3cccc(C(F)(F)F)c3)C(=O)/C(=C/c3cccc(C(F)(F)F)c3)C2)cc1 [BAP 20] | 0.9 ± 0.1 µM | 4.3 ± 0.2 µM | 17.4 ± 0.1 µM | 83.7 ± 1.3% | 75.2 ± 2.7% | 77.7 ± 1.5% | 0.17 ± 0.002 µM | 0.15 ± 0.02 µM | 2.4 ± 0.4 µM | 19.3 | 4.0 | 14.1 | 16.0 |  |
| O=C1/C(=C/c2ccc(C(F)(F)F)cc2)CN(S(=O)(=O)c2ccccc2)C/C1=C\c1ccc(C(F)(F)F)cc1 [BAP 22] | ~1.8 µM | ~8.5 µM | 18.2 ± 0.2 µM | 89.4 ± 7.8% | 65.2 ± 1.3% | 68.3 ± 1.3% | 0.18 ± 0.02 µM | 0.17 ± 0.06 µM | 7.9 ± 0.1 µM |  |  |  |  |  |
| O=C1/C(=C/c2ccccc2C(F)(F)F)CN(S(=O)(=O)c2ccccc2)C/C1=C\c1ccccc1C(F)(F)F [BAP 4] |  |  |  |  |  |  |  |  |  | 1.8 | 2.0 | 3.8 | 0.2 | IC50 (HepG2; listed as 4): 9.2 ± 0.2 µM; IC50 (HepG2): ~9.2 µM; IC50 (SMMC-7721): ~8.2 µM; IC50 (SMMC-7721; listed as 4): 8.2 ± 0.6 µM; IC50 (LO2): 16.4 ± 0.2 µM; Survival rate RAW264.7 cell (RAW264.7 cell; BAPs 5 μM): 82.2 ± 2.0%; Inhibition rate TNF-α (TNF-α; BAPs (5 μM) + LPS (1 μg/mL)): 62.1 ± 4.7%; Inhibition rate IL-6 (IL-6; BAPs (5 μM) + LPS (1 μg/mL)): 70.7 ± 1.3%; IC50 (A549; read-out: Cytotoxicity IC50 A549, MTT, non-small cell lung cancer cell line): 2.24 ± 1.23 µM; IC50 (A2780; read-out: Cytotoxicity IC50 A2780, MTT, ovarian cancer cell line): 54 ± 12 µM |
| O=C1/C(=C/c2cccc(C(F)(F)F)c2)CN(S(=O)(=O)c2ccc(F)cc2)C/C1=C\c1cccc(C(F)(F)F)c1 [BAP 17] | 3.4 ± 0.2 µM | 4.8 ± 0.3 µM | 19.5 ± 0.1 µM | 85.1 ± 2% | 65.6 ± 1.2% | 67.6 ± 2.2% | 0.28 ± 0.01 µM | 0.14 ± 0.01 µM | 3.5 ± 0.5 µM |  |  |  |  |  |
| Cc1ccc(S(=O)(=O)N2C/C(=C\c3ccccc3C(F)(F)F)C(=O)/C(=C/c3ccccc3C(F)(F)F)C2)cc1 [BAP 5] | 17.5 ± 0.1 µM | 19.7 ± 0.1 µM | 36.2 ± 2.3 µM | 93.3 ± 1.7% | 46.2 ± 1% | 49.6 ± 1.1% | 14 ± 1.99 µM | 4.85 ± 0.47 µM | 24.9 ± 0.1 µM |  |  |  |  |  |
